What was measured:
[1] = PANTAX phase Ib: safety, DLT and MTD of SCO-101 with Gem and Nab; assay type: in vivo
Protocol: ORR, clinical benefit rate (CBR), median progression free survival (mPFS), and mOS were included as secondary end points.
Patients were recruited at four centers, two in Denmark and two in Germany.
Study treatment is illustrated in Fig. 1. […] Chemotherapy with Gem and Nab was given days 6, 13, and 20 in each cycle. […] During the first cycle, patients received treatment with chemotherapy at a dose corresponding to 80% of the recommended dose, i.e., 100 mg/m^2 Nab and 800 mg/m^2 Gem given as infusions over 30 min. […] The dose of chemotherapy was further adjusted to the patient´s tolerability in accordance with the chemotherapy-product monographs. Standard antiemetics were allowed as was the use of granulocyte colony-stimulating factor (G-CSF) in case of treatment-induced neutropenia.
Toxicity was assessed at baseline and weekly at days 1, 6, 13, and 20 before each treatment.

[2] = parameters: method as in PMID 32628359; conditions: healthy volunteers, cited from earlier work
[3] = 50 mg SCO-101 (cohort 1, 3 patients) + Gem/Nab, any CTC-AE grade
[4] = 50 mg SCO-101 (cohort 1, 3 patients) + Gem/Nab, grade ≥ 3
[5] = 100 mg SCO-101 (cohort 2, 3 patients) + Gem/Nab, any CTC-AE grade
[6] = 150 mg SCO-101 (cohort 3, 6 patients) + Gem/Nab, any CTC-AE grade
[7] = 150 mg SCO-101 (cohort 3, 6 patients) + Gem/Nab, grade ≥ 3
[8] = 200 mg SCO-101 (cohort 4, 6 patients) + Gem/Nab, any CTC-AE grade
[9] = 250 mg SCO-101 (cohort 5, 4 patients) + Gem/Nab, any CTC-AE grade
[10] = 250 mg SCO-101 (cohort 5, 4 patients) + Gem/Nab, grade ≥ 3
[11] = 22 patients, all dose levels, with Gem and Nab
[12] = sum of cohorts (22 patients) + Gem/Nab, any CTC-AE grade
[13] = sum of cohorts (22 patients) + Gem/Nab, grade ≥ 3

In the case of `O=C(Nc1cc(C(F)(F)F)cc(C(F)(F)F)c1)Nc1ccc(Br)cc1-c1nnn[nH]1` [SCO-101], the “Alopecia, patients with treatment-related AE” value (shortened to “Alopecia, patients”) [1, 3] is reported as 2, the “Athralgia, patients with treatment-related AE” value (from here on “Athralgia, patients”) [1, 3] is reported as 1 and the “Chills, patients with treatment-related AE” value (“Chills, patients” below) [1, 3] is reported as 1. The “Diarrhea, patients with treatment-related AE” value (“Diarrhea, patients” for short) [1, 3] was 3, the “Dizziness, patients with treatment-related AE” value (“Dizziness, patients” for short) [1, 3] was 1 and the “Fatigue, patients with treatment-related AE” value (“Fatigue, patients” below) [1, 3] was 3. The “Headache, patients with treatment-related AE” value (from here on “Headache, patients”) [1, 3] was 1, the “Hypertension, patients with treatment-related AE” value (“Hypertension, patients” below) [1, 3] was 1 and the “Nail disorder, patients with treatment-related AE” value (shortened to “Nail disorder, patients”) [1, 3] was 1. For the same compound, the “Nausea, patients with treatment-related AE” value (“Nausea, patients” for short) [1, 3] was 3, the “Pain, patients with treatment-related AE” value [1, 3] was 2 and the “Paraestesia, patients with treatment-related AE” value (“Paraestesia, patients” below) [1, 3] was 1. The “Rash, patients with treatment-related AE” value [1, 3] was 2, the “↑B-bilirubin, patients with treatment-related AE” value (“↑B-bilirubin, patients” for short) [1, 3] was 2 and the “↑B-lactate, patients with treatment-related AE” value (from here on “↑B-lactate, patients”) [1, 3] was 1. For the same compound, the “↓B-hemoglobin, patients with treatment-related AE” value (from here on “↓B-hemoglobin, patients”) [1, 3] was 2, the “↓B-lymphocytes, patients with treatment-related AE” value (“↓B-lymphocytes, patients” for short) [1, 3] was 3 and the “↓B-neutrophils, patients with treatment-related AE” value (from here on “↓B-neutrophils, patients”) [1, 3] was 3. For the same compound, the “↓B-thrombocytes, patients with treatment-related AE” value (“↓B-thrombocytes, patients” below) [1, 3] was 3, the “Chills, patients” value [1, 4] was 1 and the “Hypertension, patients” value [1, 4] was 1. The “↑B-lactate, patients” value [1, 4] was 1, the “↓B-lymphocytes, patients” value [1, 4] was 2 and the “↓B-neutrophils, patients” value [1, 4] was 3. For the same compound, the “Alopecia, patients” value [1, 5] was 2, the “Candidiasis, patients with treatment-related AE” value (“Candidiasis, patients” for short) [1, 5] was 1 and the “Diarrhea, patients” value [1, 5] was 3. For the same compound, the “Dysgeusia, patients with treatment-related AE” value (shortened to “Dysgeusia, patients”) [1, 5] was 1, the “Fatigue, patients” value [1, 5] was 1 and the “Nail disorder, patients” value [1, 5] was 1. The “Nausea, patients” value [1, 5] was 3, the “Oedema, patients with treatment-related AE” value (from here on “Oedema, patients”) [1, 5] was 1 and the “Paraestesia, patients” value [1, 5] was 2. For the same compound, the “Rash, patients with treatment-related AE” value [1, 5] was 2, the “Stomatitis, patients with treatment-related AE” value (“Stomatitis, patients” for short) [1, 5] was 1 and the “↑B-bilirubin, patients” value [1, 5] was 1. The “↓B-hemoglobin, patients” value [1, 5] was 1, the “↓B-neutrophils, patients” value [1, 5] was 1 and the “Paraestesia, patients” value ([1]; 100 mg SCO-101 (cohort 2, 3 patients) + Gem/Nab, grade ≥ 3) was 1. The “Alopecia, patients” value [1, 6] was 2, the “Athralgia, patients” value [1, 6] was 1 and the “Candidiasis, patients” value [1, 6] was 1. The “Constipation, patients with treatment-related AE” value (from here on “Constipation, patients”) [1, 6] was 1, the “Diarrhea, patients” value [1, 6] was 3 and the “Fatigue, patients” value [1, 6] was 2. The “Headache, patients” value [1, 6] was 1, the “Jaundice, patients with treatment-related AE” value (“Jaundice, patients” below) [1, 6] was 1 and the “Nausea, patients” value [1, 6] was 2. For the same compound, the “Pain, patients with treatment-related AE” value [1, 6] was 1, the “Rash, patients with treatment-related AE” value [1, 6] was 1 and the “Stomatitis, patients” value [1, 6] was 2. The “TTP, patients with treatment-related AE” value [1, 6] was 1, the “Vomitting, patients with treatment-related AE” value (“Vomitting, patients” for short) [1, 6] was 2 and the “↑B-bilirubin, patients” value [1, 6] was 2. The “↓B-hemoglobin, patients” value [1, 6] was 4, the “↓B-neutrophils, patients” value [1, 6] was 1 and the “↓B-thrombocytes, patients” value [1, 6] was 1. The “Fatigue, patients” value [1, 7] was 1, the “Jaundice, patients” value [1, 7] was 1 and the “TTP, patients with treatment-related AE” value [1, 7] was 1. For the same compound, the “↑B-bilirubin, patients” value [1, 7] was 1, the “↓B-hemoglobin, patients” value [1, 7] was 2 and the “blood bilirubin in the DLT case” value ([1]; 150 mg SCO-101, one patient) was 24 µmol/L. The “Alopecia, patients” value [1, 8] was 4, the “Constipation, patients” value [1, 8] was 1 and the “Diarrhea, patients” value [1, 8] was 2. For the same compound, the “Dizziness, patients” value [1, 8] was 1, the “Dysgeusia, patients” value [1, 8] was 1 and the “Fatigue, patients” value [1, 8] was 4. The “Headache, patients” value [1, 8] was 1, the “Jaundice, patients” value [1, 8] was 1 and the “Loss of appetite, patients with treatment-related AE” value [1, 8] was 2. For the same compound, the “Nausea, patients” value [1, 8] was 3, the “Oedema, patients” value [1, 8] was 1 and the “Pain, patients with treatment-related AE” value [1, 8] was 2. The “Paraestesia, patients” value [1, 8] was 1, the “Rash, patients with treatment-related AE” value [1, 8] was 2 and the “Stomatitis, patients” value [1, 8] was 4. The “Vomitting, patients” value [1, 8] was 1, the “↑B-bilirubin, patients” value [1, 8] was 4 and the “↓B-hemoglobin, patients” value [1, 8] was 3. The “↓B-neutrophils, patients” value [1, 8] was 1, the “↓B-thrombocytes, patients” value [1, 8] was 2 and the “↓B-neutrophils, patients” value ([1]; 200 mg SCO-101 (cohort 4, 6 patients) + Gem/Nab, grade ≥ 3) was 1. For the same compound, the “Candidiasis, patients” value [1, 9] was 1, the “Constipation, patients” value [1, 9] was 1 and the “Dysgeusia, patients” value [1, 9] was 1. The “Fatigue, patients” value [1, 9] was 2, the “Jaundice, patients” value [1, 9] was 1 and the “Nausea, patients” value [1, 9] was 2. For the same compound, the “Paraestesia, patients” value [1, 9] was 3, the “Rash, patients with treatment-related AE” value [1, 9] was 1 and the “↑B-bilirubin, patients” value [1, 9] was 2. The “↓B-hemoglobin, patients” value [1, 9] was 1, the “↓B-neutrophils, patients” value [1, 9] was 1 and the “↓B-thrombocytes, patients” value [1, 9] was 2. The “↓B-neutrophils, patients” value [1, 10] was 1, the “↓B-thrombocytes, patients” value [1, 10] was 2 and the “cases of clinical jaundice associated with bilirubin elevation” value ([1]; 22 patients, all dose levels) was “three”. The “patients with SAEs (nineteen SAEs)” value ([1]; 22 patients, all dose levels) was 11 patients, the “suspected unexpected serious adverse reactions (SUSARs)” value ([1]; 22 patients, all dose levels) was “No suspected unexpected serious adverse reactions” and the “cases with elevation of blood bilirubin” value [1, 11] was 55%. For the same compound, the “patients with a SCO-101-related AE grade 4 (thrombocytopenia)” value [1, 11] was 9%, the “maximum tolerated dose (MTD)” value ([1]; SCO-101 daily for 6 days, bi-weekly schedule, with 80% dose of Gem and Nab, PDAC patients) was 200 mg and the “dose-limiting toxicities (DLTs), first cycle” value (“dose-limiting toxicities” below) ([1]; dose level 3, 150 mg SCO-101, six patients, with Gem and Nab) was “One”. The “dose-limiting toxicities” value ([1]; dose level 4, 200 mg SCO-101, with Gem and Nab) was “No DLTs”, the “dose-limiting toxicities” value ([1]; dose level 5, 250 mg SCO-101, thrombocytopenia AE grade 4, with Gem and Nab) was “two” and the “time to resolution of bilirubin elevation” value ([1]; not accompanied by biochemical hepatotoxicity) was at most 1 week. The “SAEs deemed related to SCO-101” value ([1]; of nineteen SAEs, transiently increased blood bilirubin AE grade 3 at 150 mg SCO-101) was “one”, the “Alopecia, patients” value [1, 12] was 10 and the “Athralgia, patients” value [1, 12] was 2. The “Candidiasis, patients” value [1, 12] was 3, the “Chills, patients” value [1, 12] was 1 and the “Constipation, patients” value [1, 12] was 3. For the same compound, the “Diarrhea, patients” value [1, 12] was 11, the “Dizziness, patients” value [1, 12] was 2 and the “Dysgeusia, patients” value [1, 12] was 3. The “Fatigue, patients” value [1, 12] was 12, the “Headache, patients” value [1, 12] was 3 and the “Hypertension, patients” value [1, 12] was 1. For the same compound, the “Jaundice, patients” value [1, 12] was 3, the “Loss of appetite, patients with treatment-related AE” value [1, 12] was 2 and the “Nail disorder, patients” value [1, 12] was 2. The “Nausea, patients” value [1, 12] was 13, the “Oedema, patients” value [1, 12] was 2 and the “Pain, patients with treatment-related AE” value [1, 12] was 5. For the same compound, the “Paraestesia, patients” value [1, 12] was 7, the “Rash, patients with treatment-related AE” value [1, 12] was 8 and the “Stomatitis, patients” value [1, 12] was 7. The “TTP, patients with treatment-related AE” value [1, 12] was 1, the “Vomitting, patients” value [1, 12] was 3 and the “↑B-lactate, patients” value [1, 12] was 1. For the same compound, the “↓B-hemoglobin, patients” value [1, 12] was 11, the “↓B-lymphocytes, patients” value [1, 12] was 3 and the “↓B-neutrophils, patients” value [1, 12] was 7. For the same compound, the “↓B-thrombocytes, patients” value [1, 12] was 8, the “Chills, patients” value [1, 13] was 1 and the “Fatigue, patients” value [1, 13] was 1. The “Hypertension, patients” value [1, 13] was 1, the “Jaundice, patients” value [1, 13] was 1 and the “Paraestesia, patients” value [1, 13] was 1. For the same compound, the “TTP, patients with treatment-related AE” value [1, 13] was 1, the “↑B-lactate, patients” value [1, 13] was 1 and the “↓B-hemoglobin, patients” value [1, 13] was 2. The “↓B-lymphocytes, patients” value [1, 13] was 2, the “↓B-neutrophils, patients” value [1, 13] was 5 and the “↓B-thrombocytes, patients” value [1, 13] was 2. The “individuals who developed clinical jaundice” value ([2]; 150 mg dose cohort) was “Two” and the adverse events ([2]; single doses up to 200 mg or multiple doses up to 150 mg daily for 14 days) was “mild adverse events (AEs) and no serious adverse events (SAEs)”.
